Measured values: PubChem BioAssay AID1259407 (Chemical Carcinogenesis Research Information System (CCRIS), 2018)
Activity calls are given as the source filed them. The rule behind the calls is not given here.

Test system: CCRIS mutagenicity, Ames/micronucleus/aberration tests
Experiment: CCRIS mutagenicity studies

`O=c1c(O)c(-c2ccc(O)c(O)c2)oc2cc(O)cc(O)c12` was tested, and the mutagenic call (End Point: IN VIVO MICRONUCLEUS, Test System: BONE MARROW POLYCHROMATIC ERYTHROCYTES, Species: MOUSE, Strain/Sex: DDY/MALE, Route: IP) was “inactive; negative”, the mutagenic call (End Point: In vivo micronucleus, Test System: Bone marrow polychromatic erythrocytes, Species: Rat, Strain/Sex: Wistar/Male, Route: Oral (gavage)) was “inactive; negative” and the mutagenic call (Test System: AMES SALMONELLA TYPHIMURIUM, Strain/Indicator: TA97, Metabolic Activation: NONE, Method: STANDARD PLATE) was “active; positive”. The mutagenic call (Test System: AMES SALMONELLA TYPHIMURIUM, Strain/Indicator: TA97A, Metabolic Activation: NONE, Method: STANDARD PLATE) was “active; positive”, the mutagenic call (Test System: AMES SALMONELLA TYPHIMURIUM, Strain/Indicator: TA97A, Metabolic Activation: RAT, LIVER, S9, AROCLOR 1254, Method: STANDARD PLATE) was “active; positive” and the mutagenic call (Test System: AMES SALMONELLA TYPHIMURIUM, Strain/Indicator: TA98, Metabolic Activation: HAMSTER, LIVER, S9, AROCLOR 1254 (30%), Method: PREINCUBATION) was “active; positive”. The mutagenic call (Test System: AMES SALMONELLA TYPHIMURIUM, Strain/Indicator: TA98, Metabolic Activation: NONE, Method: FLUCTUATION (MICROTITER)) was “active; positive”, the mutagenic call (Test System: AMES SALMONELLA TYPHIMURIUM, Strain/Indicator: TA98, Metabolic Activation: NONE, Method: PREINCUBATION) was “active; positive” and the mutagenic call (Test System: AMES SALMONELLA TYPHIMURIUM, Strain/Indicator: TA98, Metabolic Activation: NONE, Method: STANDARD PLATE) was “active; positive”. The mutagenic call (Test System: AMES SALMONELLA TYPHIMURIUM, Strain/Indicator: TA98, Metabolic Activation: RAT, LIVER, CYTOSOL, Method: PREINCUBATION) was “active; positive”, the mutagenic call (Test System: AMES SALMONELLA TYPHIMURIUM, Strain/Indicator: TA98, Metabolic Activation: RAT, LIVER, S9, 5,6-BENZOFLAVONE AND/OR SODIUM PHENOBARBITAL, Method: PREINCUBATION) was “active; positive” and the mutagenic call (Test System: AMES SALMONELLA TYPHIMURIUM, Strain/Indicator: TA98, Metabolic Activation: RAT, LIVER, S9, AROCLOR 1254 (30%), Method: PREINCUBATION) was “active; positive”. The mutagenic call (Test System: AMES SALMONELLA TYPHIMURIUM, Strain/Indicator: TA98, Metabolic Activation: RAT, LIVER, S-9, PHENOBARBITAL, Method: STANDARD PLATE) was “active; positive”, the mutagenic call (Test System: AMES SALMONELLA TYPHIMURIUM, Strain/Indicator: TA98, Metabolic Activation: S9, GLUCOSE-6-PHOSPHATE AND NADP, Method: STANDARD PLATE) was “active; positive” and the mutagenic call (Test System: AMES SALMONELLA TYPHIMURIUM, Strain/Indicator: TA98, Metabolic Activation: S9, Method: STANDARD PLATE) was “active; positive”. For the same molecule, the mutagenic call (Test System: AMES SALMONELLA TYPHIMURIUM, Strain/Indicator: TA98, Metabolic Activation: S-100, GLUCOSE-6-PHOSPHATE AND NADP, Method: STANDARD PLATE) was “active; positive”, the mutagenic call (Test System: AMES SALMONELLA TYPHIMURIUM, Strain/Indicator: TA98, Metabolic Activation: S-100, Method: STANDARD PLATE) was “active; positive” and the mutagenic call (Test System: AMES SALMONELLA TYPHIMURIUM, Strain/Indicator: TA100, Metabolic Activation: HAMSTER, LIVER, S9, AROCLOR 1254 (30%), Method: PREINCUBATION) was “active; positive”. The mutagenic call (Test System: AMES SALMONELLA TYPHIMURIUM, Strain/Indicator: TA100, Metabolic Activation: NONE, Method: PREINCUBATION) was “active; positive”, the mutagenic call (Test System: AMES SALMONELLA TYPHIMURIUM, Strain/Indicator: TA100, Metabolic Activation: NONE, Method: STANDARD PLATE) was “active; positive” and the mutagenic call (Test System: AMES SALMONELLA TYPHIMURIUM, Strain/Indicator: TA100, Metabolic Activation: RAT, LIVER, S9, AROCLOR 1254 (30%), Method: PREINCUBATION) was “active; positive”. For the same molecule, the mutagenic call (Test System: AMES SALMONELLA TYPHIMURIUM, Strain/Indicator: TA100, Metabolic Activation: RAT, LIVER, S-9, PHENOBARBITAL, Method: STANDARD PLATE) was “active; positive”, the mutagenic call (Test System: AMES SALMONELLA TYPHIMURIUM, Strain/Indicator: TA102, Metabolic Activation: RAT, LIVER, S9, AROCLOR 1254, Method: STANDARD PLATE) was “active; positive” and the mutagenic call (Test System: AMES SALMONELLA TYPHIMURIUM, Strain/Indicator: TA1535, Metabolic Activation: NONE, Method: STANDARD PLATE) was “inactive; negative”. The mutagenic call (Test System: AMES SALMONELLA TYPHIMURIUM, Strain/Indicator: TA1537, Metabolic Activation: NONE, Method: FLUCTUATION (MICROTITER)) was “active; positive”, the mutagenic call (Test System: AMES SALMONELLA TYPHIMURIUM, Strain/Indicator: TA1538, Metabolic Activation: NONE, Method: STANDARD PLATE) was “active; positive” and the mutagenic call (Test System: AMES SALMONELLA TYPHIMURIUM, Strain/Indicator: TA7001, Metabolic Activation: NONE, Method: FLUCTUATION (MICROTITER)) was “inactive; negative”. For the same molecule, the mutagenic call (Test System: AMES SALMONELLA TYPHIMURIUM, Strain/Indicator: TA7002, Metabolic Activation: NONE, Method: FLUCTUATION (MICROTITER)) was “active; positive”, the mutagenic call (Test System: AMES SALMONELLA TYPHIMURIUM, Strain/Indicator: TA7003, Metabolic Activation: NONE, Method: FLUCTUATION (MICROTITER)) was “inactive; negative” and the mutagenic call (Test System: AMES SALMONELLA TYPHIMURIUM, Strain/Indicator: TA7004, Metabolic Activation: NONE, Method: FLUCTUATION (MICROTITER)) was “active; positive”. For the same molecule, the mutagenic call (Test System: AMES SALMONELLA TYPHIMURIUM, Strain/Indicator: TA7005, Metabolic Activation: NONE, Method: FLUCTUATION (MICROTITER)) was “active; positive”, the mutagenic call (Test System: AMES SALMONELLA TYPHIMURIUM, Strain/Indicator: TA7006, Metabolic Activation: NONE, Method: FLUCTUATION (MICROTITER)) was “inactive; negative” and the mutagenic call (Test System: Ames Salmonella typhimurium, Strain/Indicator: TA98, Metabolic Activation: None, Method: Standard plate) was “active; positive”. The mutagenic call (Test System: Ames Salmonella typhimurium, Strain/Indicator: TA98, Metabolic Activation: Rat, Liver, S9, Aroclor 1254, Method: Standard plate) was “active; positive”, the mutagenic call (Test System: Ames Salmonella typhimurium, Strain/Indicator: TA100, Metabolic Activation: None, Method: Standard plate) was “active; positive” and the mutagenic call (Test System: Ames Salmonella typhimurium, Strain/Indicator: TA100, Metabolic Activation: Rat, Liver, S9, Aroclor 1254, Method: Standard plate) was “active; positive”. For the same molecule, the mutagenic call (Test System: Ames Salmonella typhimurium, Strain/Indicator: TA102, Metabolic Activation: Fe ++ (1 uM) with NADPH generating system, Method: Preincubation) was “active; positive”, the mutagenic call (Test System: Ames Salmonella typhimurium, Strain/Indicator: TA102, Metabolic Activation: None, Method: Preincubation) was “active; positive” and the mutagenic call (Test System: Ames Salmonella typhimurium, Strain/Indicator: TA102, Metabolic Activation: Rat, Liver, S9, Aroclor 1254, Method: Preincubation) was “active; positive”. The mutagenic call (Test System: Ames Salmonella typhimurium, Strain/Indicator: TA102, Metabolic Activation: Rat, Liver, S-9, Aroclor 1254 in 0.154 M KCl, Method: Preincubation) was “active; positive”, the mutagenic call (Test System: E. coli, Strain/Indicator: WP2 uvrA, Metabolic Activation: Fe ++ (1 uM) with NADPH generating system, Method: Preincubation) was “active; positive” and the mutagenic call (Test System: E. coli, Strain/Indicator: WP2 uvrA, Metabolic Activation: None, Method: Preincubation) was “active; positive”. For the same molecule, the mutagenic call (Test System: E. coli, Strain/Indicator: WP2 uvrA, Metabolic Activation: Rat, Liver, S9, Aroclor 1254, Method: Preincubation) was “active; positive”, the mutagenic call (Test System: UDS RAT GASTRIC MUCOSAL CELLS, Strain/Indicator: THY INCORP, Metabolic Activation: NONE, Method: LIQUID SCINTILLATION COUNTING) was “inactive; negative” and the mutagenic call (Test System: UDS Rat hepatocytes, Strain/Indicator: Wistar (Male and female), Method: Autoradiography) was “inactive; negative”.
